Earlier results on one compound are cited in patent US7517878B2, “Heteroarylaminopyrazole derivatives useful for the treatment of diabetes” (Bayer Pharamceuticals Corporation, priority 2004, dated 2009).

This series relates to INS-1 cells. The note with it: INS-1 cells maintained in the presence of beta-mercaptoethanol; Hohmeier, et al., Diabetes 49:424, 2002; read-out: EC50 of insulin secretion in response to glucose.

Broadly, the EC50 is the midpoint of the concentration-response curve. On to `O=C[C@H](O)[C@@H](O)[C@H](O)[C@H](O)CO` [glucose], for which the EC50 was 6 mM.
